Patent US7205329B2, “Modulators of CRTH2 activity” (Microbia, Inc., priority 2003, dated 2007)

Legend:
neutrophils = assay: CD11b expression assay, neutrophil control for CRTH2 agonist activity; type: cell-based, human; details: leukocytes incubated with test compound 10 min at room temperature; flow cytometry
Source text: CRTH2 agonists increase the expression of CD11b on eosinophils. […] They do, however, express receptors for other lipid mediators, including 5-oxo-6,8,11,14-eicosatetraenoic acid (5-oxo-ETE), leukotriene B4 (LTB4), and platelet activating factor. Therefore, any increased expression of CD11b by neutrophils is likely to be caused by an activity other than activation of CRTH2. Accordingly, preferred compounds increase CD11b expression on eosinophils, but not on neutrophils.
The potential CRTH2 agonist activity of certain compounds was tested using a CD11b expression assay using essentially the method described by Monneret et al. (J Pharmacol Exp Ther 304:349–55, 2003), and the results of this analysis are presented in FIG. 1 where the results of two separate experiments are reported.
Briefly, leukocytes (0.5 ml; 10^6/ml cells) in PBS containing 0.9 mM CaCl2 and 0.5 mM MgCl2) were incubated with a test compound at room temperature for 10 min. The incubations were terminated by the addition of ice-cold FACSFlow (BD Biosciences; Cat# 342003) and centrifugation (400 g for 5 min at 4° C.). […] The distribution of fluorescence intensities among 60,000 cells was measured by flow cytometry. Eosinophils were gated out on the basis of their granularity (high side scatter) and labeling with VLA-4 (PE fluorescence). CD11b was then measured in the eosinophil region on the basis of fluorescence due to FITC. […]

CCR3 = details: Stubbs et al. 2002, J Biol Chem 277:26012–26020; cited from earlier work

| SMILES | expression of CD11b on neutrophils (neutrophils) | expression of CCR3, the receptor for eotaxin (CCR3) |
| --- | --- | --- |
| CCCCCC=CCC=CCC=CC=CC(=O)CCCC(=O)O [5-oxo-ETE, 5-oxo-6,8,11,14-eicosatetraenoic acid] | increased expression of CD11b on neutrophils |  |
| COc1ccc2c(c1)c(CC(=O)O)c(C)n2C(=O)c1ccc(Cl)cc1 [indomethacin] |  | reduces expression of CCR3 |
